Patent publication US20250339531A1, “DUX4 POLYPEPTIDES AND NUCLEIC ACIDS FOR TREATING INFLAMMATORY AND AUTOIMMUNE CONDITIONS” (Fred Hutchinson Cancer Center, priority 2021, published 2025)

System: proteins that co-immunoprecipitated with DUX4-CTD constructs expressed in MB135 myoblasts
Assay: LC-MS of proteins co-immunoprecipitated with DUX4-CTD (Table 1) and western validation
Assay type: binding, human
Parameters: key to 4. mL1dL2 + Dox + IFNG / 4. + IFNG mix / 4. longCTD + Dox + IFNG / 3. + IFNg + Dox longCTD / 3. + Dox longCTD / 3. + IFNG longCTD: peptide-spectrum matches (PSMs) per protein
Conditions: for 4. longCTD + Dox + IFNG: LC-MS counts of the listed protein co-immunoprecipitated with DUX4-CTD bait longCTD; for 3. + Dox longCTD / 3. + IFNg + Dox longCTD / 3. + IFNG longCTD: bait longCTD; for 3. + Dox longCTD: experiment 3, Dox only; for 3. + IFNg + Dox longCTD: experiment 3, IFNg + Dox; for SUM of PSMS: sum over all samples; for 3. + IFNG longCTD: experiment 3, IFNG only, no doxycycline (bait at background level)
Source text: As an unbiased method to identify proteins that interact with the C-terminal region of DUX4, liquid chromatography mass spectroscopy (LC-MS) was used to identify proteins that co-immunoprecipitated with DUX4-CTD constructs expressed in MB135 myoblasts. In the first experiment, MB135iDUX4-CTD cells were used, either untreated, treated with doxycycline alone, or with both doxycycline and IFNG. In the second experiment, MB135iDUX4-CTD and MB135iDUX4mL1dL2 cells were used, both treated with doxycycline and IFNG, compared to these two cell lines untreated and combined as a control. Proteins with a minimum of 2 peptide spectrum matches (PSMs) in at least one sample that were identified in both experiments were assigned to one of ten categories (see Methods) to separate candidate interactors from other categories that might be co-purified because of obligate interactions (e.g., proteasome or ribosome) or might be less likely to be physiologically relevant (e.g., cytoskeletal proteins). Candidate interactors were then ranked based on the total PSMs for that protein across all samples.
Centrifugation at 2500 rcf at 4° C. for 5 min pelleted the nuclei, supernatant was discarded, and nuclei resuspended in 1 mL IP buffer pH 7.4 (25 mM Tris-HCl pH 7.5, 175 mM NaCl, 1 mM EDTA, 0.2% NP-40, 5% glycerol) and incubated for 1 hour at 4° C. with rotation then spun at 21000 rcf for 10 minutes at 4° C. to pellet insoluble debris. Protein concentration was determined using the Pierce BCA Protein Assay Kit (ThermoFisher, 23225). An equivalent amount of protein per sample was pre-cleared with Dynabeads Protein G (Invitrogen) bound to mouse IgG (Abcam #131368) for 1 hour at 4° C. with rotation. FLAG-tagged constructs were then immunoprecipitated with Dynabeads Protein G beads coupled to mouse anti-FLAG M2 mAb (Sigma F3165) for 3 hours at 4° C. with rotation. Beads were washed 3× with 1 mL IP buffer and eluted by adding 2× NuPage LDS Sample Buffer (Thermo Fisher, diluted from 4× with PBS) to the beads and heating for 10 minutes at 70° C.
For LC-MS, anti-FLAG immunoprecipitation was performed with beads cross-linked to the anti-FLAG antibody and the proteins competitively eluted with FLAG peptide. Eluted protein samples were electrophoresed into a NuPage 4-12% Bis-Tris gel, excised, and processed by the Fred Hutchinson Cancer Research Center Proteomics Core. Samples were reduced, alkylated, digested with trypsin, desalted, and run on the Orbitrap Eclipse Tribid Mass Spectrometer (Thermo Fisher). Proteomics data were analyzed using Proteome Discoverer 2.4 against a Uniprot human database that included common contaminants using Sequest HT and Percolator for scoring. […] Proteins that were identified in at least one sample from both independent experiments with at least 2 PSMs in one sample were assigned to one of ten categories: 1, candidates; 2, cytoskeletal associated; 3, cytoskeletal; 4, ribosome/translation associated; 5, proteasome associated; 6, membrane or extracellular; ER, golgi, or vesicle associated; 8, lipid metabolism; 9, chaperones; 10, nuclear import or nuclear membrane associated. The proteins in category 1 were further investigated for interactions with DUX4.

[1] = LC-MS value per protein co-immunoprecipitated from MB135 myoblasts, + IFNG mix sample (no Dox), kind of count not given
[2] = LC-MS value per protein co-immunoprecipitated with DUX4-CTD construct mL1dL2 in MB135 myoblasts, + Dox + IFNG, kind of count not given
[3] = LC-MS counts of the listed protein co-immunoprecipitated with DUX4-CTD bait mL1dL2, experiment 4, Dox + IFNG
[4] = LC-MS counts of the listed protein in anti-FLAG co-IP, experiment 4, IFNG, no doxycycline, mix, MB135 myoblasts

Row | Substance | 4. + IFNG mix [1] | 4. mL1dL2 + Dox + IFNG [2] | 4. longCTD + Dox + IFNG (experiment 4, Dox + IFNG) | 4. mL1dL2 + Dox + IFNG [3] | 3. + Dox longCTD | 3. + IFNg + Dox longCTD | SUM of PSMS | 4. + IFNG mix [4] | 3. + IFNG longCTD
1 | AHNAK | 1 | – | – | – | – | – | – | – | –
2 | CLTC | – | 8 | – | – | – | – | – | – | –
3 | COL1A2 | 2 | – | – | – | – | – | – | – | –
4 | DES | 24 | 10 | – | – | – | – | – | – | –
5 | EEF1G | – | 1 | – | – | – | – | – | – | –
6 | ENO1 | 6 | 3 | – | – | – | – | – | – | –
7 | FLNA | 3 | 4 | – | – | – | – | – | – | –
8 | FLNC | 1 | 2 | – | – | – | – | – | – | –
9 | FN1 | 3 | – | – | – | – | – | – | – | –
10 | G3BP1 | 1 | 1 | – | – | – | – | – | – | –
11 | HNRNPK | 3 | 12 | – | – | – | – | – | – | –
12 | HNRNPU | – | 1 | – | – | – | – | – | – | –
13 | MYH9 | 10 | 1 | – | – | – | – | – | – | –
14 | NES | 6 | 1 | – | – | – | – | – | – | –
15 | NPM1 | 2 | 4 | – | – | – | – | – | – | –
16 | O60684 | – | – | 1 | 6 | 4 | 4 | 15 | – | –
17 | P4HB | 9 | 20 | – | – | – | – | – | – | –
18 | P02751 | – | – | – | – | 17 | 48 | 68 | – | –

Row | Substance | 4. + IFNG mix [1] | 4. mL1dL2 + Dox + IFNG [2] | 4. longCTD + Dox + IFNG (experiment 4, Dox + IFNG) | 4. mL1dL2 + Dox + IFNG [3] | 3. + Dox longCTD | 3. + IFNg + Dox longCTD | SUM of PSMS | 4. + IFNG mix [4] | 3. + IFNG longCTD
19 | P06748 | – | – | – | – | 2 | 8 | 16 | – | –
20 | P07237 | – | – | 14 | – | 3 | 5 | 51 | – | –
21 | P07900 | – | – | 10 | 5 | – | 9 | 30 | 6 | –
22 | P08123 | – | – | – | – | 1 | – | 4 | – | 1
23 | P08238 | – | – | 10 | 6 | 2 | 14 | 32 | – | –
24 | P08670 | – | – | 55 | – | 42 | 45 | 290 | – | 39
25 | P10644 | – | – | 3 | 4 | – | 4 | 11 | – | –
26 | P11021 | – | – | 44 | 49 | 22 | 62 | 209 | 31 | 1
27 | P11142 | – | – | 105 | 90 | 27 | 54 | 299 | 21 | 2
28 | P11940 | – | – | 3 | – | – | 13 | 21 | – | –
29 | P16989 | – | – | – | – | 1 | 3 | 11 | – | –
30 | P17661 | – | – | 12 | – | 9 | 15 | 84 | – | 14
31 | P21333 | – | – | 10 | – | 1 | 12 | 30 | – | –
32 | P26641 | – | – | 1 | – | 3 | 6 | 11 | – | –
33 | P30153 | – | – | 2 | – | 5 | 14 | 28 | – | 2
34 | P35579 | – | – | 4 | – | 122 | 242 | 387 | – | 8
35 | P38646 | – | – | 7 | 11 | 1 | 10 | 30 | 1 | –
